Test: Maximum carbon dioxide release temperature of amine compound (DSC after CO2 absorption)
Type: physicochemical
Details: amine compound after 24 hours in air at 23° C. and 50% RH; DSC 23 to 250° C., 10° C./minute, nitrogen
Method: (Maximum Carbon Dioxide (CO2) Release Temperature of Amine Compound)
A carbon dioxide detector and a Petri dish were placed in an openable desiccator (inner dimension: 370 mm×260 mm×272 mm). Subsequently the amine compound (5 mmol) was added to the Petri dish in the desiccator and the door was immediately closed to leave the amine compound to stand in the desiccator in an air environment at 23° C. and 50% RH for 24 hours. The initial concentration of carbon dioxide was adjusted to about 400 ppm.
Then the amine compound was removed from the desiccator to give an amine compound with carbon dioxide absorbed. The maximum carbon dioxide release temperature of the amine compound with carbon dioxide absorbed was measured by subjecting the amine compound to DSC as described below. First, differential scanning calorimetry of the amine compound was performed under conditions of a temperature range of 23 to 250° C., a heating rate of 10° C./minute and a nitrogen atmosphere using a differential thermogravimeter (product name DTG-60 made by Shimadzu Corporation). The temperature at which the amount of heat absorbed due to the desorption of carbon dioxide was the maximum was calculated from the DSC curve obtained, and the temperature was determined as the maximum carbon dioxide release temperature of the amine compound.

Question: Which “Maximum carbon dioxide release temperature” value does the source give for `NC1CCC(CC2CCC(N)CC2)CC1` (centres unmarked) [PACM, 4,4′-methylenebis(cyclohexylamine), reference compound] here?
Answer: Its value is 53 °C.

Question: Which “Maximum carbon dioxide release temperature” value does the source give for `NCC1CCCC(CN)C1` (centres unmarked) [1,3-BAC, 1,3-bis(aminomethyl)cyclohexane] here?
Answer: Its value is 125.7 °C.

Question: Which “Maximum carbon dioxide release temperature” value does the source give for `NCc1cccc(CN)c1` [MXDA, metaxylylenediamine] here?
Answer: The value was 135.5 °C.

Question: For `NCCN1CCNCC1` [AEP, N-(2-aminoethyl) piperazine], which “Maximum carbon dioxide release temperature” value is on record?
Answer: The value was 81.9 °C.

Question: Which “Maximum carbon dioxide release temperature” value does the source give for `CC1(C)CC(N)CC(C)(CN)C1` (centres unmarked) [IPDA, isophoronediamine] here?
Answer: Its value is 114.4 °C.
